# Data taken from patent publication US11376233B2 (AJOU UNIVERSITY INDUSTRY-ACADEMIC COOPERATION FOUNDATION, priority 2017, dated 2022).
# How the values were obtained:
# catalase and SOD2 [1] = assay: mRNA expression of antioxidant enzymes by quantitative real-time PCR in H2O2-treated auditory cells; type: cell-based; settings: pre-treated 1, 10, 25 and 50 μM for 1 hour, 250 μM H2O2 for 24 hours
# Description: (§1) The mRNA expression was determined by quantitative real-time PCR after extraction of total RNA and synthesis of cDNA. Protein expression was observed by extracting total protein with RIPA buffer, separating proteins in the order of size by SDS-PAGE and then attaching catalase (catalase, Abcam, ab1877, Cambridge, UK)) and SOD2 (superoxide dismutase 2, Santa Cruz, Calif., USA) thereto.
# [2] = test system: peripheral arterial occlusion; settings: rat, injection of lauric acid; cited from earlier work
# HEI-OC1 cells [3] = assay: Cytotoxicity and apoptosis caused by H2O2, WST-1 analysis; type: cell-based; settings: pretreatment 0.1, 1, 10 and 25 μM for 1 hour, then 500 μM H2O2 for 24 hours
# Description: Auditory cell (HEI-OC1; House-Ear Institute-organ of Corti 1) lines expressing auditory genes were used, and the HEI-OC1 cells were cultured at 33° C. and under 10% CO2 in DMEM medium (Dulbecco's modified Eagle's Medium) containing a high concentration of glutamine, supplemented with 10% fetal bovine serum (FBS) and 25 U/ml of interferon gamma. A noise-induced hearing loss cell line was established through treatment with H2O2 to produce reactive oxygen species (ROS) by oxidative stress during induction of hearing loss by noise.
# arterial thrombosis = settings: mouse vascular endothelial injury; rat polyethylene tube; cited from earlier work
# catalase and SOD2 [4] = assay: Tissue immunohistostaining of cochlea (spiral ganglia, auditory hair cells) in noise-induced hearing loss animal model; type: in vivo, Balb/c mice; settings: immunohistochemistry, spiral ganglia (apex, middle, base) and auditory hair cells in cochlea; pretreated 50 mg/kg
# Description: Confocal Laser Scanning Microscopes and immunostaining were performed for the morphological analysis of spiral ganglia and hair cells located in the organ of Corti in the cochlea in noise-induced hearing loss animal model of Example 1. […] The animal tissues were immobilized and embedded with paraffin to obtain tissue sections. Anti-oxidation-related protein antibodies were primarily attached to the tissue sections, fluorescent antibodies were secondarily attached thereto, and immunohistochemistry was performed to analyze the expression behavior of the anti-oxidation-related proteins. The antibodies were subjected to immunohistochemistry with the antioxidant factors, catalase (Abcam, ab1877, Cambridge, UK), SOD2 (Santa Cruz, Calif., USA), and DAPI (Invitrogen, Carlsbad, Calif.).
# HEI-OC1 cells [5] = assay: Cytotoxicity of sarpogrelate by WST-1 analysis; type: cell-based; settings: 0.1, 1, 10 and 25 μM for 24 hours
# Description: Auditory cell (HEI-OC1; House-Ear Institute-organ of Corti 1) lines expressing auditory genes were used, and the HEI-OC1 cells were cultured at 33° C. and under 10% CO2 in DMEM medium (Dulbecco's modified Eagle's Medium) containing a high concentration of glutamine, supplemented with 10% fetal bovine serum (FBS) and 25 U/ml of interferon gamma.
# platelet aggregation = settings: cited from earlier work
# catalase and SOD2 [6] = assay: Protein expression of antioxidant enzymes by Western blotting in H2O2-treated auditory cells; type: cell-based; settings: pre-treated 1, 10, 25 and 50 μM for 1 hour, 250 μM H2O2 for 24 hours
# Description: as §1
# [7] = test system: rat vascular smooth muscles; settings: in vitro; cited from earlier work
compound,measurement,setting,value
"COc1cccc(CCc2ccccc2OCC(CN(C)C)OC(=O)CCC(=O)O)c1 (stereo not drawn) [sarpogrelate, 4-[2-(dimethylamino)-1-({2-[2-(3-methoxyphenyl)ethyl]phenoxy}methyl)ethoxy]-4-oxobutanoic acid]",mRNA expression of SOD2,catalase and SOD2 [1],increased
same,mRNA expression of catalase,catalase and SOD2 [1],increased
same,onset of the condition in the peripheral arterial occlusion model,[2],inhibits the onset of the condition
same,apoptosis of auditory cells caused by H2O2,HEI-OC1 cells [3],inhibiting apoptosis
same,formation of thrombus in arterial thrombosis models,arterial thrombosis,inhibit the formation of thrombus
same,expression of SOD2,catalase and SOD2 [4],significantly increased
same,expression of catalase,catalase and SOD2 [4],significantly increased
same,cytotoxicity of sarpogrelate,HEI-OC1 cells [5],not to cause cytotoxicity
same,platelet aggregation by collagen and secondary platelet aggregation by ADP or epinephrine,platelet aggregation,inhibited
same,protein expression of SOD2,catalase and SOD2 [6],increased
same,protein expression of catalase,catalase and SOD2 [6],increased
same,contraction of vascular smooth muscles by serotonin,[7],inhibiting the contraction
